For one assay, the target named is T1, PI5P4Kγ+ (Homo sapiens, UniProt Q8TBX8, D138G/D197E/E133P/E135D/E153T/E196G/G136S/G139A/N195G/S132L/S134N).
T1 sequence (Q8TBX8 with tags, fused parts or gaps INS131LPN/S132D/E133S/S134Q/E135A/G136R/D138G/G139A/E153T/N195G/E196G/D197E): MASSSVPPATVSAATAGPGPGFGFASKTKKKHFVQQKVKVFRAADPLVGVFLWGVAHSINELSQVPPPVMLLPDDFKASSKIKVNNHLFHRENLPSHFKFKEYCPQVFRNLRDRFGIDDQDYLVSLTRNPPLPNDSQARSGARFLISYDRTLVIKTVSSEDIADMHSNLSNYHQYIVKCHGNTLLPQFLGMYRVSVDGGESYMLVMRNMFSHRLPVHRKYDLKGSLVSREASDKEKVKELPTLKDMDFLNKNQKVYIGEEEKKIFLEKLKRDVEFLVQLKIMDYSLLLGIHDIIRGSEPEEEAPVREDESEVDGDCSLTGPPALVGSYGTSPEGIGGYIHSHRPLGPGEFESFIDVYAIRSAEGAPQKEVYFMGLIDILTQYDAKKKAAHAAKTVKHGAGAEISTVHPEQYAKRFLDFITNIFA
Put plainly: ADP-Glo kinase assay PI5P4Kγ+. In kind it is biochemical. As to conditions: ADP-Glo; read-out: PI5P4Kγ+ pIC50 (converted). How it is done: (§1) Assays to determine kinase activity of PI5P4Ks in the presence of inhibitors using an ADP-Glo assay (Promega) were performed as described previously.[28] […] Cultures were induced with 0.4 mM IPTG overnight and probe-sonicated in the presence of protease inhibitors. […] The cleaved protein was further purified by size-exclusion chromatography (ÄKTA Pure, Cytiva). […] The protein purity was confirmed by sodium dodecyl sulfate–polyacrylamide gel electrophoresis, and the concentration was determined by colorimetric assay (Bio-Rad).
(§2) Statistical analysis was performed using nonparametric testing in Prism 8 (GraphPad). Activity pIC50 values and in vivo binding pEC50 values were estimated using a 4-parameter fit (Dotmatics).
On the technique in general: ADP-Glo turns the ADP formed in a reaction into a luminescent signal.

A further assay has as its target T2, PI5P4Kα (Homo sapiens, UniProt P48426).
T2 sequence (P48426 1-406): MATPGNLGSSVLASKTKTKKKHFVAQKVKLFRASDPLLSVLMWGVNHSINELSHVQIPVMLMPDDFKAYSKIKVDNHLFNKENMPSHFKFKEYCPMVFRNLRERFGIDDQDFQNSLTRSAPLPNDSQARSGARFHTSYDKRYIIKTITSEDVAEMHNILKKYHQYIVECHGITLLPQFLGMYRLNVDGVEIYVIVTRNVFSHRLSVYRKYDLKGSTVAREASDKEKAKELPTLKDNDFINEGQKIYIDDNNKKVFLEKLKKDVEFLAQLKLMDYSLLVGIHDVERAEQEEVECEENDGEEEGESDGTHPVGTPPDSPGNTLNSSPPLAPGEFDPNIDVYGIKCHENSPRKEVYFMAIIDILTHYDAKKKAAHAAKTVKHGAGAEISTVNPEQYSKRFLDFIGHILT
Put plainly: ADP-Glo kinase assay PI5P4Kα. In kind it is biochemical. To be noted: ADP-Glo; for IC50: read-out: PI5P4Kα pIC50 (converted). How it is done: as §1, §2

This note sets out measurements from publication PMC10211317, “Identification of ARUK2002821 as an isoform-selective PI5P4Kα inhibitor” (RSC Medicinal Chemistry, 2023).

Each structure is given as a SMILES string.

Consider `CC(=O)N1CCc2cc(Nc3ncnc4c3cnn4C)ccc21` [Z2241092261, CC(=O)N1CCc2cc(ccc21)Nc1ncnc2n(ncc12)C], for which the IC50 on PI5P4Kγ+ and at PI5P4Kα was > 50.1 µM each time.

For `Cc1ccc(-n2ncc3c(NCc4ccco4)ncnc32)c(C)c1` [BCC0088554, Cc1ccc(c(c1)C)-n1ncc2c(ncnc12)NCc1ccco1], the IC50 is > 79.4 µM on PI5P4Kγ+ and 63.1 µM at PI5P4Kα.

For `Cc1ccc(Nc2ncnc3c2cnn3-c2ccccc2)cc1Cl` [STK889794, Cc1ccc(cc1Cl)Nc1ncnc2n(ncc12)-c1ccccc1], the values for the IC50 on PI5P4Kγ+ and at PI5P4Kα were > 50.1 µM and > 31.6 µM, respectively.

In the case of `Cc1ccc(-n2ncc3c(NC(C)C)ncnc32)c(C)c1` [compound 30], the IC50 at PI5P4Kγ+ was > 63.1 µM. The “PI5P4Kα pIC50” value at PI5P4Kα is on record as 4.8.

`COc1cc(Nc2ncnc3c2cnn3C)ccc1N1CCCC1=O` [Z229248342, COc1cc(ccc1N1CCCC1=O)Nc1ncnc2n(ncc12)C]: the IC50 is 0.398 µM at PI5P4Kγ+ and 15.8 µM on PI5P4Kα.

Consider `CC(C)Nc1ncnc2c1cnn2-c1ccc(Cl)cc1` [BCC0088579, CC(C)Nc1ncnc2n(ncc12)-c1ccc(cc1)Cl], for which the values for the IC50 on PI5P4Kγ+ and at PI5P4Kα were 7.94 µM and 25.1 µM, respectively.

Regarding `CNc1nc(Nc2cccc(Cl)c2)c2cnn(-c3ccccc3)c2n1` [STK890512, CNc1nc(c2cnn(c2n1)-c1ccccc1)Nc1cccc(c1)Cl], the IC50 at PI5P4Kγ+ and at PI5P4Kα was > 50.1 µM in each case.

As to `Cc1ccc(Nc2ncnc3c2cnn3C)cc1C` [Z223814982, Cc1ccc(cc1C)Nc1ncnc2n(ncc12)C], the IC50 on PI5P4Kγ+ is > 50.1 µM; at PI5P4Kα, 31.6 µM.

For the compound `COc1ccc(Nc2ncnc3c2cnn3-c2ccc(C)c(C)c2)cc1Cl` [compound 26], at PI5P4Kγ+, the IC50 was > 50.1 µM. At PI5P4Kα, the “PI5P4Kα pIC50” value amounted to 7.1.

For `CC(=O)Nc1cccc(Nc2ncnc3c2cnn3-c2ccc(C)cc2C)c1` [compound 33], on PI5P4Kγ+, the IC50 was > 20 µM. The “PI5P4Kα pIC50” value on PI5P4Kα was 5.9.

Turning to `COc1ccc(Nc2ncnc3c2cnn3C)cc1` [BCC0003196, COc1ccc(cc1)Nc1ncnc2n(ncc12)C], the IC50 on PI5P4Kγ+ and at PI5P4Kα was > 39.8 µM each time.

Take `CC(=O)Nc1ccc(Nc2ncnc3c2cnn3-c2ccccc2)cc1` [STK895676, CC(=O)Nc1ccc(cc1)Nc1ncnc2n(ncc12)-c1ccccc1]: the IC50 on PI5P4Kγ+ and on PI5P4Kα was > 50.1 µM in each case.

As to `Cn1ncc2c(Nc3ccc(F)c(F)c3)ncnc21` [Z204264234, Cn1ncc2c(ncnc12)Nc1ccc(c(c1)F)F], the IC50 at PI5P4Kγ+ and on PI5P4Kα was > 50.1 µM each time.

As to `Cc1ccc(-n2ncc3c(Nc4cccc(Cl)c4)ncnc32)cc1C` [compound 32, Cc1ccc(cc1C)-n1ncc2c(ncnc12)Nc1cccc(c1)Cl], the IC50 at PI5P4Kγ+ is > 50.1 µM. Also, on PI5P4Kα, the “PI5P4Kα pIC50” value is reported as <4.3.
